The values that follow come from patent publication US12649751B2 (Arcus Biosciences, Inc., priority 2022, dated 2026).

The structures appear in SMILES notation. Like-named read-outs stand apart in the source and are kept apart here.

Experiment [1] relates to p-SLP-76 (Ser376) in Jurkat cells. Briefly: pSLP76 Cellular Assay (AlphaLISA SureFire Ultra p-SLP-76 (Ser376), anti-CD3 activated Jurkat cells). Format: cell-based. The note with it: Homo sapiens; pSLP76 (Ser376) AlphaLISA, anti-CD3 activated Jurkat cells; read-out: Cellular Potency. The gist of the method: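 Read-out is AlphaLISA p-SLP-76 (Ser376) signal at 570 nm in Jurkat lysates, with IC50 fitted by 4-parameter logistic. Cells were starved overnight, exposed 1 h at 37 °C to 22 twofold compound dilutions in HBSS, then activated 45 min with anti-CD3 (0.025 mg/ml stock added).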
(In general: Alpha assays give light when donor and acceptor beads are brought close together.)

The target in a further experiment is HPK1 (Homo sapiens, UniProt Q92918). Put plainly: HPK1 Biochemical Assay (ADP-Glo luminescence; low ATP 10 μM or high ATP 200 μM). The note with it: HPK1 ADP-Glo assay. A general note: ADP-Glo first removes unused ATP, then detects ADP through luciferase.
Chain of HPK1 (Q92918 whole entry, species assumed): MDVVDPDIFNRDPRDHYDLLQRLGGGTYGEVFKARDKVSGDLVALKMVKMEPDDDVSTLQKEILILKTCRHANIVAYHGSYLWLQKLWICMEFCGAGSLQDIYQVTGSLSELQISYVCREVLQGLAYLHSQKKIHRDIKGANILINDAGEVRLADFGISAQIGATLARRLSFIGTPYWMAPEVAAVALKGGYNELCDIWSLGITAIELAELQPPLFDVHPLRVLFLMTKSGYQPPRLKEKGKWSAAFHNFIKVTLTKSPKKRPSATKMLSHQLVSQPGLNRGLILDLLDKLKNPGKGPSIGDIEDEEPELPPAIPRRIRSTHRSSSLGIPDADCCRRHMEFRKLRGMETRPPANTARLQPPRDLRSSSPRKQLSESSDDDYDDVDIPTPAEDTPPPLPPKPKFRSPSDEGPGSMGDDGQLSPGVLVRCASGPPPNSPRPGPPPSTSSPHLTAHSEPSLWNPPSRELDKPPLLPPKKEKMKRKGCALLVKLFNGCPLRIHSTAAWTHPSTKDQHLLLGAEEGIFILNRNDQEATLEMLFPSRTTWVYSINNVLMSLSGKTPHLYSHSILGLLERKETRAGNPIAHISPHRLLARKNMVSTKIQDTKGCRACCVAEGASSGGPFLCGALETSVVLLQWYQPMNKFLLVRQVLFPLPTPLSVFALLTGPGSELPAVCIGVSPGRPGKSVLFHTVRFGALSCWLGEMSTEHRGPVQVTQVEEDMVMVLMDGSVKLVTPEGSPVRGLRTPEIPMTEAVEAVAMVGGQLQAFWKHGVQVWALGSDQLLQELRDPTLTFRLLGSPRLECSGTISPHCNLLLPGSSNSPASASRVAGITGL
The mark [2] stands for this setting: high ATP (200 μM ATP, 5 nM HPK1), read-out: Biochemical Potency (high ATP).
[3] abbreviates: low ATP (10 μM ATP, 2 nM HPK1), read-out: Biochemical Potency (low ATP).

On to `Cc1cc(Nc2cc3nc(-c4cccc(-c5ccn(C)n5)c4)sc3cn2)nc(N2C[C@@H]3C[C@H]2CN3C)n1` [Example 365], for which the IC50 was 5000 to 25000 nM in experiment [1] and < 100 nM on HPK1 (setting [2]).

For `Cc1cc(Nc2cc3nc(-c4cnn(C)c4C#N)sc3cn2)nc(N2C[C@@H]3C[C@H]2CN3C)n1` [Example 366], the IC50 in experiment [1] is 100 to 1000 nM; at HPK1 (setting [2]), < 100 nM.

Regarding `Cc1cc(Nc2cc3nc(-c4cccc(S(=O)(=O)N5CCCCC5)c4)sc3cn2)nc(N2C[C@@H]3C[C@H]2CN3C)n1` [Example 367], the IC50 was 1000 to 5000 nM in experiment [1] and < 100 nM at HPK1 (setting [2]).

In the case of `Cc1cc(Nc2cc3nc(-c4cnn(C)c4-c4ccccc4)sc3cn2)nc(N2C[C@@H]3C[C@H]2CN3C)n1` [Example 368], the IC50 is 100 to 1000 nM in experiment [1] and < 100 nM at HPK1 (setting [2]).

Turning to `Cc1cc(Nc2cc3nc(-c4cnn(CS(C)(=O)=O)c4)sc3cn2)nc(N2C[C@@H]3C[C@H]2CN3CCO)n1` [Example 369], the IC50 is 100 to 1000 nM in experiment [1] and < 100 nM at HPK1 (setting [2]).

On to `Cc1cc(Nc2cc3nc(-c4cnn(CC5CC5)c4)sc3cn2)nc(N2C[C@@H]3C[C@H]2CN3CCO)n1` [Example 370], for which the IC50 (in experiment [1]; at HPK1 (setting [2])) was < 100 nM in each case.

Turning to `Cc1cc(Nc2cc3nc(-c4cnn(C(C)(C)C#N)c4)sc3cn2)nc(N2C[C@@H]3C[C@H]2CN3C)n1` [Example 371], the IC50 in experiment [1] was 100 to 1000 nM; on HPK1 (setting [2]) it was < 100 nM.

Turning to `Cc1cc(Nc2cc3nc(-c4cnn(C)c4C(=O)N(C)C)sc3cn2)nc(N2C[C@@H]3C[C@H]2CN3C)n1` [Example 372], the IC50 in experiment [1] was 100 to 1000 nM; on HPK1 (setting [2]), < 100 nM.

For `Cc1cc(Nc2cc3nc(-c4ncc(C)o4)sc3cn2)nc(N2C[C@@H]3C[C@H]2CN3C)n1` [Example 373], the IC50 is 100 to 1000 nM in experiment [1] and < 100 nM at HPK1 (setting [2]).

Take `Cc1cc(Nc2cc3nc(-c4ccc5c(c4)S(=O)(=O)N(C)C5)sc3cn2)nc(N2C[C@@H]3C[C@H]2CN3C)n1` [Example 374]: the results for the IC50 (in experiment [1]; at HPK1 (setting [2])) were 5000 to 25000 nM and 100 to 1000 nM, respectively.

In the case of `Cc1cc(Nc2cc3nc(-c4cnn(CC(F)F)c4)sc3cn2)nc(N2C[C@@H]3C[C@H]2CN3C)n1` [Example 375], the results for the IC50 (in experiment [1]; at HPK1 (setting [2])) were 100 to 1000 nM and < 100 nM, respectively.

As for `COCCn1cc(-c2nc3cc(Nc4cc(C)nc(N5C[C@@H]6C[C@H]5CN6C)n4)ncc3s2)cn1` [Example 376], the IC50 was 100 to 1000 nM in experiment [1] and < 100 nM on HPK1 (setting [2]).

On to `Cc1cc(Nc2cc3nc(-c4ccn5nccc5c4)sc3cn2)nc(N2C[C@@H]3C[C@H]2CN3C)n1` [Example 377], for which the IC50 in experiment [1] is 5000 to 25000 nM; on HPK1 (setting [2]), < 100 nM.

With `Cc1cc(Nc2cc3nc(-c4cnn(CS(C)(=O)=O)c4)sc3cn2)nc(N2C[C@@H]3C[C@H]2CN3C)n1` [Example 378], the IC50 in experiment [1] was 100 to 1000 nM; at HPK1 (setting [2]) it was < 100 nM.

For the compound `Cc1cc(Nc2cc3nc(-c4cnn5c4CCCC5)sc3cn2)nc(N2C[C@@H]3C[C@H]2CN3C)n1` [Example 379], the figures for the IC50 (in experiment [1]; at HPK1 (setting [2])) were 1000 to 5000 nM and < 100 nM, respectively.

As to `Cc1cc(Nc2cc3nc(-c4cnn(CC5CC5(F)F)c4)sc3cn2)nc(N2C[C@@H]3C[C@H]2CN3C)n1` (stereo partly shown) [Example 380], the values for the IC50 (in experiment [1]; at HPK1 (setting [2])) were 1000 to 5000 nM and < 100 nM, respectively.

Turning to `Cc1cc(Nc2cc3nc(-c4cnn(CCO)c4)sc3cn2)nc(N2C[C@@H]3C[C@H]2CN3C)n1` [Example 381], the IC50 in experiment [1] is 100 to 1000 nM; at HPK1 (setting [2]) it was < 100 nM.

On to `Cc1cc(Nc2cc3nc(-c4cccc(C(=O)N(C)C)c4)sc3cn2)nc(N2C[C@@H]3C[C@H]2CN3CC2CC2)n1` [Example 382], for which the IC50 in experiment [1] was 100 to 1000 nM; at HPK1 (setting [2]), < 100 nM.

On to `CCN1C[C@@H]2C[C@H]1CN2c1nc(C)cc(Nc2cc3nc(-c4cnn(CC5CC5)c4)sc3cn2)n1` [Example 383], for which the IC50 (in experiment [1]; on HPK1 (setting [2])) was < 100 nM throughout.

As for `Cc1cc(Nc2cc3nc(-c4cncc(C(F)F)c4)sc3cn2)nc(N2C[C@@H]3C[C@H]2CN3C)n1` [Example 384], the IC50 is 100 to 1000 nM in experiment [1] and < 100 nM on HPK1 (setting [2]).

As for `Cc1cc(Nc2cc3nc(-c4cnn5c4COCC5)sc3cn2)nc(N2C[C@@H]3C[C@H]2CN3C)n1` [Example 385], the IC50 was 100 to 1000 nM in experiment [1] and < 100 nM at HPK1 (setting [2]).

For the compound `Cc1cc(Nc2cc3nc(-c4cnn5ccccc45)sc3cn2)nc(N2C[C@@H]3C[C@H]2CN3C)n1` [Example 386], the figures for the IC50 (in experiment [1]; on HPK1 (setting [2])) were 1000 to 5000 nM and < 100 nM, respectively.

Consider `CCC(O)(CC)c1cc(-c2nc3cc(Nc4cc(C)nc(N5C[C@@H]6C[C@H]5CN6C)n4)ncc3s2)ccn1` [Example 387], for which the IC50 in experiment [1] was 100 to 1000 nM; at HPK1 (setting [2]), < 100 nM.

For `Cc1cc(Nc2cc3nc(-c4ncco4)sc3cn2)nc(N2C[C@@H]3C[C@H]2CN3C)n1` [Example 388], the IC50 was 100 to 1000 nM in experiment [1] and < 100 nM at HPK1 (setting [2]).

With `CC(=O)N1CCc2c(cccc2-c2nc3cc(Nc4cc(C)nc(N5C[C@@H]6C[C@H]5CN6C)n4)ncc3s2)C1` [Example 389], the results for the IC50 (in experiment [1]; on HPK1 (setting [2])) were 1000 to 5000 nM and 100 to 1000 nM, respectively.

Turning to `Cc1cc(Nc2cc3nc(-c4cccc(OC(F)F)c4)sc3cn2)nc(N2C[C@@H]3C[C@H]2CN3C)n1` [Example 390], the values for the IC50 (in experiment [1]; on HPK1 (setting [2])) were 100 to 1000 nM and < 100 nM, respectively.

Turning to `Cc1cc(Nc2cc3nc(-c4ccc(=O)n(C)c4)sc3cn2)nc(N2C[C@@H]3C[C@H]2CN3C)n1` [Example 391], the IC50 fell in the range of 1000 to 5000 nM in experiment [1] and 100 to 1000 nM on HPK1 (setting [2]).

Turning to `Cc1cc(Nc2cc3nc(-c4cccc(NC(=O)C5CC5)c4)sc3cn2)nc(N2C[C@@H]3C[C@H]2CN3C)n1` [Example 392], the IC50 in experiment [1] is 100 to 1000 nM; on HPK1 (setting [2]), < 100 nM.

Consider `Cc1cc(Nc2cc3nc(-c4cccc(C5(C(=O)N(C)C)CC5)c4)sc3cn2)nc(N2C[C@@H]3C[C@H]2CN3C)n1` [Example 393], for which the IC50 in experiment [1] is 100 to 1000 nM; on HPK1 (setting [2]), < 100 nM.

For `Cc1cc(Nc2cc3nc(-c4cccc(C(C)(C)C(=O)N(C)C)c4)sc3cn2)nc(N2C[C@@H]3C[C@H]2CN3C)n1` [Example 394], the values for the IC50 (in experiment [1]; on HPK1 (setting [2])) were 100 to 1000 nM and < 100 nM, respectively.

For `Cc1cc(Nc2cc3nc(-c4cccc(CC(=O)N(C)C)c4)sc3cn2)nc(N2C[C@@H]3C[C@H]2CN3C)n1` [Example 395], the IC50 (in experiment [1]; on HPK1 (setting [2])) was 100 to 1000 nM each time.

As for `CC(=O)N(C)c1cccc(-c2nc3cc(Nc4cc(C)nc(N5C[C@@H]6C[C@H]5CN6C)n4)ncc3s2)c1` [Example 396], the IC50 is 100 to 1000 nM in experiment [1] and < 100 nM at HPK1 (setting [2]).

As to `Cc1cc(Nc2cc3nc(-c4ccnc(C5(O)CCCC5)c4)sc3cn2)nc(N2C[C@@H]3C[C@H]2CN3C)n1` [Example 397], the IC50 (in experiment [1]; at HPK1 (setting [2])) was < 100 nM in each case.

In the case of `Cc1cc(Nc2cc3nc(-c4cccc5c4CCN(C)C5=O)sc3cn2)nc(N2C[C@@H]3C[C@H]2CN3C)n1` [Example 398], the IC50 in experiment [1] fell in the range of 1000 to 5000 nM; on HPK1 (setting [2]), 100 to 1000 nM.

For the compound `Cc1cc(Nc2cc3nc(-c4cccc(C(=O)N(C)C)c4F)sc3cn2)nc(N2C[C@@H]3C[C@H]2CN3C)n1` [Example 399], the IC50 in experiment [1] was 100 to 1000 nM; at HPK1 (setting [2]), < 100 nM.

Turning to `Cc1cc(Nc2cc3nc(-c4cccc5c4CN(C)C5=O)sc3cn2)nc(N2C[C@@H]3C[C@H]2CN3C)n1` [Example 400], the results for the IC50 (in experiment [1]; on HPK1 (setting [2])) were 5000 to 25000 nM and < 100 nM, respectively.

In the case of `Cc1cc(Nc2cc3nc(-c4cccc(C(C)(C)O)c4F)sc3cn2)nc(N2C[C@@H]3C[C@H]2CN3C)n1` [Example 401], the IC50 is 100 to 1000 nM in experiment [1] and < 100 nM on HPK1 (setting [2]).

For the compound `Cc1cc(Nc2cc3nc(-c4cccc(C5(O)CCC5)c4)sc3cn2)nc(N2C[C@@H]3C[C@H]2CN3C)n1` [Example 402], the IC50 is 100 to 1000 nM in experiment [1] and < 100 nM at HPK1 (setting [2]).

For `Cc1cc(Nc2cc3nc(-c4cccc(C5(O)CCCC5)c4)sc3cn2)nc(N2C[C@@H]3C[C@H]2CN3C)n1` [Example 403], the figures for the IC50 (in experiment [1]; on HPK1 (setting [2])) were 100 to 1000 nM and < 100 nM, respectively.

Consider `Cc1cc(Nc2cc3nc(-c4cccc(C5CCOCC5)c4)sc3cn2)nc(N2C[C@@H]3C[C@H]2CN3C)n1` [Example 404], for which the IC50 in experiment [1] is 1000 to 5000 nM; at HPK1 (setting [2]), < 100 nM.

Turning to `CN1C[C@@H]2C[C@H]1CN2c1nccc(Nc2cc3nc(-c4cccc(S(=O)(=O)C5CC5)c4)sc3cn2)n1` [Example 405], the IC50 in experiment [1] is 100 to 1000 nM; at HPK1 (setting [2]), < 100 nM.

Consider `Cc1cc(Nc2cc3nc(-c4ccnc(C(C)(C)O)c4)sc3cn2)nc(N2C[C@@H]3C[C@H]2CN3C)n1` [Example 406], for which the values for the IC50 (in experiment [1]; at HPK1 (setting [2]); at HPK1 (setting [3])) were 100 to 1000 nM, < 100 nM and < 100 nM, respectively.

As to `Cc1cc(Nc2cc3nc(-c4ncccc4C)sc3cn2)nc(N2C[C@@H]3C[C@H]2CN3)n1` [Example 407], the IC50 (in experiment [1]; at HPK1 (setting [2]); on HPK1 (setting [3])) was < 100 nM in each case.

With `CN1C[C@@H]2C[C@H]1CN2c1nccc(Nc2cc3nc(-c4ccnc(C(C)(O)C(F)(F)F)c4)sc3cn2)n1` (stereo partly shown) [Example 408], the IC50 is 100 to 1000 nM in experiment [1], < 100 nM on HPK1 (setting [2]) and < 100 nM on HPK1 (setting [3]).
